“Also recorded” adds a separate entry of the source.
Assays:
21-VS cells (HA-Venus) = assay: Control fluorescence of 21-VS stable cells expressing intact Venus; format: cell-based; settings: same experimental conditions as 2-PN4 cells
Experimental: The HA-Supt4h-YC and FLAG-NGN-YN fragments were amplified by PCR using plasmid constructs described above and sub-cloned individually into the pTRE-tight-BI vector (Clontech Laboratories), which contain a bi-directional CMV promoter under the control of tetracycline. The coding sequence of yellow fluorescence protein Venus with a HA-epitope in its N-terminus was PCR-amplified and cloned into the vector to generate pTRE-HA-Venus.
Tet-on HeLa cells were transfected with linearized pTRE-HA-Supt4h-VC-Flag-NGN-VN plasmid construct using LipofectAMINE 2000 (Invitrogen). After transfection, cells were cultured initially in growth medium containing puromycin (1 μg/ml) and then selected for clones that show YFP fluorescence in the presence of tetracycline (4 μg/ml). The stable line having the strongest fluorescence signal was isolated and designated as 2-PN4. […]
Stable lines 2-PN4 and 21-VS were pre-cultured in 6-well plates, followed by an incubation of Doxycycline (4 μg/ml) together with various concentrations of chemical compounds for 24 hr. Cells were washed with PBS (Sigma) and monitored by microscope (20× magnification). Photos were taken using Nikon D500 camera with a setting of ISO 1600, shutter 1/200 for the light images, and shutter ½ for the fluorescence images. […] The average of overall fluorescence signal was determined and compared to the one observed in DMSO-treated control sample. […]

[1] = target: T1, Supt4h-YC / NGN-YN complex (Homo sapiens, UniProt O00267+P63272); assay: Co-immunoprecipitation of HA-Supt4h-YC with Flag-NGN-YN from 2-PN4 cells; format: cell-based; settings: 20 μM, 36 hr, immunoprecipitation with anti-HA
T1 construct: NGN-YN is a genetic engineered protein in which Supt5h NGN domain is fused to YFP YN; expressed in transfected cells
Experimental: 2-PN4 cells, following a treatment of 6CR (Cf=20 μM) for 36 hr, were lysed with modified RIPA buffer (50 mM Tris-HCl [pH 7.5], 150 mM NaCl, 1% NP-40, 1% sodium deoxycholate), supplement with 1 mM Na3VO4, 1 mM DTT, 1 mM PMSF and protease inhibitor cocktail (Sigma). The collected protein lysates (1 mg) were diluted with modified RIPA buffer to a final volume of 0.5 ml and then incubated with anti-HA antibodies (1 μg) overnight. Following incubation with protein A agarose beads (Millipore) for another 6 hr, the beads were washed twice with modified RIPA buffer containing 20 μM 6CR. All of these performances were carried out at 4° C. For detection of proteins that coprecipitated with HA-Supt4h-YC, the immunocomplex was fractionated by SDS-PAGE, followed by Western blotting analysis with anti-HA and anti-FLAG antibodies.

[2] = system: Supt4h-YC and NGN-YN protein expression; assay: Western blot of Supt4h-YC and NGN-YN protein levels in 2-PN4 cells; format: cell-based, human
Experimental: As described (Liu et al., “Spt4 is selectively required for transcription of extended trinucleotide repeats,” Cell (2012) 148:690-701), equal amounts of protein were resolved by electrophoresis on 12% sodium dodecyl sulfate (SDS)-polyacrylamide gels, and transferred onto nitrocellulose membranes (nitrocellulose, Waterman 0.45 μM, NBA085C). After blocking with 5% low-fat milk in Tris-buffer saline containing 0.1% Tween-20, membranes were probed with primary antibodies, incubated with a horseradish peroxidase (HRP)-conjugated secondary antibody, and detected by ECL reagent (enhanced chemiluminescence, PerkinElmer).

wild-type Htt gene = assay: RT-PCR of Htt mRNA in Hdh Q7/Q7 striatal cells; format: cell-based, mouse; settings: compared to mock control
Experimental: (§1) Tet-on HeLa cells (Clontech Laboratories), and stable line 2-PN4 and 21-VS were cultured in DMEM (Gibco) supplemented with 10% Tet-off fetal bovine serum (Gibco) at 37° C. with 5% CO2. Hdh Q7/Q7 (mouse), Hdh Q111/Q111 (mouse) were cultured in DMEM (HyClone) supplemented with 10% fetal bovine serum at 33° C. with 5% C02.
(§2) Total RNA was extracted from murine neuronal cells using TRI Reagent (Sigma). For cDNA conversion, 2 μg of total RNA was mixed with 5 μM random primer, 5 μM SnRNA U6 rt-PCR primer and 500 μM dNTPs, incubated at 65° C. for 5 min and then chilled on ice. After addition of First-Strand Buffer, DTT (Cf=10 mM) and 1 μl reverse transcriptase (Invitrogen), the reaction was carried out at 42° C. for 1 hr. Equal volumes of cDNA products were PCR amplified and resolved on 2.5% agarose gels to determine the abundance of Htt transcripts after normalization with U6 or 18S ribosomal RNA.

[3] = target: T2, Supt4h-YC / Supt5h NGN-YN interaction (Homo sapiens, UniProt O00267+P63272); assay: Bimolecular fluorescence complementation (BiFC) assay in 2-PN4 stable cells; format: cell-based; settings: 24 hr with Doxycycline 4 μg/ml
T2 construct: NGN-YN is a genetic engineered protein in which Supt5h NGN domain is fused to YFP YN; expressed in transfected cells
Experimental: Human Supt4h and Supt5hNGN were fused in-frame with the YC and YN respectively. The YN and YC represent the N- and C-terminal domain of yellow fluorescent protein Venus. To prevent a change in protein folding caused by the conjugation of two polypeptides (Kerppola, “Design and implementation of bimolecular fluorescence complementation (BiFC) assays for the visualization of protein interactions in living cells,” Nature protocols (2006) 1:1278-1286), a protein linker containing additional 10 amino acid residues was included in the fusion protein. Also, extra amino acids GSHM were incorporated into the Supt5hNGN to increase its protein stability (Wenzel et al., “Crystal structure of the human transcription elongation factor DSIF hSpt4 subunit in complex with the hSpt5 dimerization interface,” The Biochemical journal (2010) 425:373-380). Supt4h, NGN, YC, and YN were amplified by PCR to generate DNA fragments containing the nucleotide sequence of protein linker. Supt4h and NGN PCR products then were mixed with the PCR product of YN or YC for secondary overlapping PCR. Finally, the resulting Supt4h-YC and NGN-YN DNA fragment was cloned into plasmid vector pcDNA3-HA and pFLAG-CMV-2 respectively.
Tet-on HeLa cells were transfected with linearized pTRE-HA-Supt4h-VC-Flag-NGN-VN plasmid construct using LipofectAMINE 2000 (Invitrogen). After transfection, cells were cultured initially in growth medium containing puromycin (1 μg/ml) and then selected for clones that show YFP fluorescence in the presence of tetracycline (4 μg/ml). The stable line having the strongest fluorescence signal was isolated and designated as 2-PN4. Likewise, 21-VS stable line was created using pTRE-HA-Venus.
Stable lines 2-PN4 and 21-VS were pre-cultured in 6-well plates, followed by an incubation of Doxycycline (4 μg/ml) together with various concentrations of chemical compounds for 24 hr. Cells were washed with PBS (Sigma) and monitored by microscope (20× magnification). Photos were taken using Nikon D500 camera with a setting of ISO 1600, shutter 1/200 for the light images, and shutter ½ for the fluorescence images. For quantification of fluorescence intensity, 5 photos with similar cell number were taken and the fluorescence signal was measured by Metamorph software individually. The average of overall fluorescence signal was determined and compared to the one observed in DMSO-treated control sample.
For the purpose of high-throughput drug screening, based on the BiFC method as mentioned above, we have created a stable cell line that co-expresses NGN-YN and Supt4h-YC under the control of a tet-on inducible promoter. […] If the complementation that is driven by NGN and Supt4h interaction is inhibited by a given test compound, the de novo YFP fluorescence signal is affected. […]

mutant Htt gene = assay: RT-PCR of Htt mRNA in Hdh Q111/Q111 striatal cells; format: cell-based, mouse; settings: compared to mock control
Experimental: as §1, §2

[4] = system: mutant Huntingtin protein; assay: Western blot of mutant HTT in Huntington's disease patient iPSC ND36999; format: cell-based, human; settings: iPSC with 180 CAG repeats, 24 hr
Experimental: (§3) Cell samples were lysed in 30 mM Tris-HCl, pH 8.0, 5 mM NaCl, 0.1% Triton X-100 for 10 min on ice. The supernatants from spinning (14 k rpm for 10 min) were collected. The protein concentrations were determined by BCA assay (Pierce, ThermoFisher). Equal amounts of protein were loaded onto 4-12% gel. After electrophoresis, the gels were transferred to nitrocellulose membranes by wet transfer at 35V for 16 hr. The protein level of mutant HTT, total HTT and tubulin were determined by immunoblotting with anti-poly Glutamine (MAB1574 from Millipore), anti-Huntingtin protein (MAB2166 from Millipore) and anti-alpha tubulin (AJ1034a from ABGENT). Blots were imaged on a Li-Cor Odyssey infrared imager. The bands intensities were determined by Li-Cor Odyssey software.
(§4) To test whether the nucleoside 6-Azauridine (HD101) and (−)-6-Azauridine 2′,3′,5′-triacetate (HD106) can affect the expression of proteins with long polyQ domains, one iPSC (induced pluripotent stem cell) line ND36999, which was derived from a Huntington's disease patient who carries one allele of mutant htt gene with 180 CAG repeats, was purchased from the Coriell Institute. The iPSCs were plated into a 24-well plate coated with Matrigel. […] Cells were lysed and the protein concentrations were determined by BCA assay. […] The image (FIG. 10) was taken and the quantification was made by Li-Cor Odyssey imaging system.

total Huntingtin protein = assay: Western blot of total HTT in Huntington's disease patient iPSC ND36999; format: cell-based, human; settings: iPSC with 180 CAG repeats, 24 hr
Experimental: as §3, §4

OC[C@H]1O[C@@H](n2cnc3c(Cl)ncnc32)C(O)C1O (stereo partly drawn) [6CR, 6-Chloropurine riboside]
fluorescence signal of 21-VS cells (21-VS cells (HA-Venus)): not altered
complex formation of Supt4h-YC and NGN-YN [1]: lower the complex formation
protein expression of Supt4h-YC and NGN-YN [2]: does not interfere with the protein expression
Htt mRNA in cells with homozygous wild-type Htt allele (wild-type Htt gene): not detectable
fluorescence intensity of 2-PN4 cells relative to control sample ([3]; 10 μM): decreased to half of control sample
BiFC fluorescence signal of 2-PN4 cells ([3]; various concentrations): reduces the fluorescence signal of 2-PN4 cells in a concentration-dependent manner; also recorded: inhibits Supt4h-YC and NGN-YN interaction
Htt mRNA transcribed from mutant allele (mutant Htt gene): down-regulated; also recorded: reduces the expression of mutant Htt gene

CC(=O)OC[C@H]1O[C@@H](n2ncc(=O)[nH]c2=O)[C@H](OC(C)=O)[C@@H]1OC(C)=O [HD106, (−)—6-Azauridine 2′,3′,5′-Triacetate]
mutant Huntingtin protein level [4]: preferentially decrease mutant Huntingtin protein in a dose dependent manner; also recorded: reduced mutant huntingtin expression in a dose dependent manner
total Huntingtin protein expression level (total Huntingtin protein): little effect
